Counter-ions that a name gives are not always drawn.
biological target: human GPR40 (Homo sapiens, UniProt O14842); test: FDSS-based intracellular calcium assay (Human GRP40 in vitro assay); type: cell-based; design: 3xFLAG; expressed in transfected cells; settings: cells expressing GPR40, intracellular Ca2+ response, FDSS reader; read-out: hGPR40 EC50
Procedure: To conduct the fluorescent imaging plate reader (FLIPR)-based calcium flux assay to measure intracellular Ca^2+ response, cells expressing GPR40 are plated on 384 well plates (BD BIOCOAT® #356697) at a density of 20,000 cells/20 μL medium per well in phenol red and serum-free DMEM (GIBCO® #21063-029) and incubated overnight. Using BD kit #s 80500-310 or -301, the cells are incubated with 20 μL per well of Hank's buffered salt solution with 1.7 mM probenecid and Fluo-3 at 37° C. for 30 min. Compounds are dissolved in DMSO and diluted to desired concentrations with assay buffer and added to the cells as 3× solution (20 μL per well). Run fluorescence/luminescence reader FDSS (Hamamatsu) to read intracellular Ca^2+ response.

Sequence of human GPR40 (O14842 whole entry): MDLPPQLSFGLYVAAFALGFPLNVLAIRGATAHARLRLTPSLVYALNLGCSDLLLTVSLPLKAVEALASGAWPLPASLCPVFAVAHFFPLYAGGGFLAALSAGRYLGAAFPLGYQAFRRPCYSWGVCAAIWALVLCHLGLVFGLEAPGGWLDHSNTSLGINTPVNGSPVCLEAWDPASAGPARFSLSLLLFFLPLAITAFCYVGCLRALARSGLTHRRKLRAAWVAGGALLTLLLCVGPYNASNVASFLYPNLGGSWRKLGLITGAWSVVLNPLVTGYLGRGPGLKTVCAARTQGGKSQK

| SMILES | EC50 |
| --- | --- |
| COc1ccc(C(C)C)c(N2CCC(Oc3ccc(N4C[C@H](OC)C[C@@H]4CC(=O)O)cc3)CC2)c1 [Example 60, 2-((2R,4R)-1-(4-(1-(2-Isopropyl-5-methoxyphenyl)piperidin-4-yloxy)phenyl)-4-methoxypyrrolidin-2-yl)acetic acid, TFA] | 190 nM |
| CO[C@@H]1C[C@H](CC(=O)O)N(c2ccc(OC3CCN(c4cc(OC(F)(F)F)ccc4F)CC3)cc2)C1 [Example 63, 2-((2R,4R)-1-(4-(1-(2-Fluoro-5-(trifluoromethoxy)phenyl)piperidin-4-yloxy)phenyl)-4-methoxypyrrolidin-2-yl)acetic acid, TFA] | 2600 nM |
| CCOc1ccc(F)c(N2CCC(Oc3ccc(N4C[C@H](Oc5ccccc5C#N)C[C@@H]4CC(=O)O)cc3)CC2)c1 [Example 66, 2-((2R,4R)-4-(2-Cyanophenoxy)-1-(4-(1-(5-ethoxy-2-fluorophenyl)piperidin-4-yloxy)phenyl)pyrrolidin-2-yl)acetic acid] | 1400 nM |
| CCOc1ccc(F)c(N2CCC(Oc3ccc(N4C[C@H](Oc5ccccc5C)C[C@@H]4CC(=O)O)cc3)CC2)c1 [Example 67, 2-((2R,4R)-1-(4-(1-(5-Ethoxy-2-fluorophenyl)piperidin-4-yloxy)phenyl)-4-(o-tolyloxy)pyrrolidin-2-yl)acetic acid] | 950 nM |
| CCOc1ccc(F)c(N2CCC(Oc3ccc(N4C[C@H](Oc5cccc(C#N)c5)C[C@@H]4CC(=O)O)cc3)CC2)c1 [Example 68, 2-((2R,4R)-4-(3-Cyanophenoxy)-1-(4-(1-(5-ethoxy-2-fluorophenyl)piperidin-4-yloxy)phenyl)pyrrolidin-2-yl)acetic acid] | 310 nM |
| CCOc1ccc(F)c(N2CCC(Oc3ccc(N4C[C@H](Oc5cccc(Cl)c5)C[C@@H]4CC(=O)O)cc3)CC2)c1 [Example 69, 2-((2R,4R)-4-(3-Chlorophenoxy)-1-(4-(1-(5-ethoxy-2-fluorophenyl)piperidin-4-yloxy)phenyl)pyrrolidin-2-yl)acetic acid] | 160 nM |
| CCOc1ccc(F)c(N2CCC(Oc3ccc(N4C[C@H](Oc5cccc(C(F)(F)F)c5)C[C@@H]4CC(=O)O)cc3)CC2)c1 [Example 71, 2-((2R,4R)-1-(4-(1-(5-Ethoxy-2-fluorophenyl)piperidin-4-yloxy)phenyl)-4-(3-(trifluoromethyl)phenoxy)pyrrolidin-2-yl)acetic acid] | 250 nM |
| CCOc1ccc(F)c(N2CCC(Oc3ccc(N4C[C@H](Oc5cccc(C)c5)C[C@@H]4CC(=O)O)cc3)CC2)c1 [Example 72, 2-((2R,4R)-1-(4-(1-(5-Ethoxy-2-fluorophenyl)piperidin-4-yloxy)phenyl)-4-(m-tolyloxy)pyrrolidin-2-yl)acetic acid] | 170 nM |
| CCOc1ccc(F)c(N2CCC(Oc3ccc(N4C[C@H](Oc5ccc(Cl)cc5)C[C@@H]4CC(=O)O)cc3)CC2)c1 [Example 73, 2-((2R,4R)-4-(4-Chlorophenoxy)-1-(4-(1-(5-ethoxy-2-fluorophenyl)piperidin-4-yloxy)phenyl)pyrrolidin-2-yl)acetic acid] | 1600 nM |
| CCOc1ccc(F)c(N2CCC(Oc3ccc(N4C[C@H](Oc5ccc(C)cc5)C[C@@H]4CC(=O)O)cc3)CC2)c1 [Example 74, 2-((2R,4R)-1-(4-(1-(5-Ethoxy-2-fluorophenyl)piperidin-4-yloxy)phenyl)-4-(p-tolyloxy)pyrrolidin-2-yl)acetic acid] | 1200 nM |
| CCOc1ccc(F)c(N2CCC(Oc3ccc(N4C[C@H](Oc5ccccn5)C[C@@H]4CC(=O)O)cc3)CC2)c1 [Example 75, 2-((2R,4R)-1-(4-(1-(5-Ethoxy-2-fluorophenyl)piperidin-4-yloxy)phenyl)-4-(pyridin-2-yloxy)pyrrolidin-2-yl)acetic acid, TFA] | 420 nM |
| CCOc1ccc(F)c(N2CCC(Oc3ccc(N4C[C@H](Oc5cccnc5)C[C@@H]4CC(=O)O)cc3)CC2)c1 [Example 76, 2-((2R,4R)-1-(4-(1-(5-Ethoxy-2-fluorophenyl)piperidin-4-yloxy)phenyl)-4-(pyridin-3-yloxy)pyrrolidin-2-yl)acetic acid] | 860 nM |
| CCOc1ccc(F)c(N2CCC(Oc3ccc(N4C[C@H](Oc5cccc(OC(F)(F)F)c5)C[C@@H]4CC(=O)O)cc3)CC2)c1 [Example 77, 2-((2R,4R)-1-(4-(1-(5-Ethoxy-2-fluorophenyl)piperidin-4-yloxy)phenyl)-4-(3-(trifluoromethoxy)phenoxy)pyrrolidin-2-yl)acetic acid] | 140 nM |
| CCOc1ccc(F)c(N2CCC(Oc3ccc(N4C[C@H](Oc5ncccn5)C[C@@H]4CC(=O)O)cc3)CC2)c1 [Example 78, 2-((2R,4R)-1-(4-(1-(5-Ethoxy-2-fluorophenyl)piperidin-4-yloxy)phenyl)-4-(pyrimidin-2-yloxy)pyrrolidin-2-yl)acetic acid, TFA] | 1600 nM |
| CCOc1ccc(F)c(N2CCC(Oc3ccc(N4C[C@H](Oc5ccccc5Cl)C[C@@H]4CC(=O)O)cc3)CC2)c1 [Example 79, 2-((2R,4R)-4-(2-Chlorophenoxy)-1-(4-(1-(5-ethoxy-2-fluorophenyl)piperidin-4-yloxy)phenyl)pyrrolidin-2-yl)acetic acid] | 740 nM |
| CCOc1ccc(F)c(N2CCC(Oc3ccc(N4C[C@H](N(C)S(=O)(=O)c5ccccc5)C[C@@H]4CC(=O)O)cc3)CC2)c1 [Example 80, 2-((2R,4R)-1-(4-(1-(5-Ethoxy-2-fluorophenyl)piperidin-4-yloxy)phenyl)-4-(N-methylphenylsulfonamido)pyrrolidin-2-yl)acetic acid, TFA] | 4600 nM |
| CCOc1ccc(F)c(N2CCC(Oc3ccc(N4C[C@H](n5ccnn5)C[C@@H]4CC(=O)O)cc3)CC2)c1 [Example 81, 2-((2R,4R)-1-(4-(1-(5-Ethoxy-2-fluorophenyl)piperidin-4-yloxy)phenyl)-4-(1H-1,2,3-triazol-1-yl)pyrrolidin-2-yl)acetic acid] | 1000 nM |
| COc1ccc(C2CCC2)c(N2CCC(Oc3ccc(N4C[C@H](OC)C[C@@H]4CC(=O)O)cc3)CC2)c1 [Example 82, 2-((2R,4R)-1-(4-((1-(2-Cyclobutyl-5-methoxyphenyl)piperidin-4-yl)oxy)phenyl)-4-methoxypyrrolidin-2-yl)acetic acid, HCl] | 310 nM |
| COc1cc(N2CCC(Oc3ccc(N4C[C@H](OC)C[C@@H]4CC(=O)O)cc3)CC2)c2nccn2n1 [Example 86, 2-((2R,4R)-4-Methoxy-1-(4-((1-(6-methoxyimidazo[1,2-b]pyridazin-8-yl)piperidin-4-yl)oxy)phenyl)pyrrolidin-2-yl)acetic acid, TFA] | 4700 nM |
| COc1cc(N2CCC(Oc3ccc(N4C[C@H](OC)C[C@@H]4CC(=O)O)cc3)CC2)c(Cl)cn1 [Example 87, 2-((2R,4R)-1-(4-((1-(5-Chloro-2-methoxypyridin-4-yl)piperidin-4-yl)oxy)phenyl)-4-methoxypyrrolidin-2-yl)acetic acid, TFA] | 350 nM |
| CCOc1ccc(F)c(N2CCC(Oc3ccc(N4C[C@H](OC)[C@@H](CC)[C@@H]4CC(=O)O)cc3)CC2)c1 [Example 88, 2-((2S,3S,4R)-1-(4-((1-(5-Ethoxy-2-fluorophenyl)piperidin-4-yl)oxy)phenyl)-3-ethyl-4-methoxypyrrolidin-2-yl)acetic acid, TFA] | 250 nM |
| CCOc1ccc(F)c(N2CCC(Oc3ccc(N4C[C@H](OC)[C@@H](C(C)C)[C@@H]4CC(=O)O)cc3)CC2)c1 [Example 89, 2-((2S,3S,4R)-1-(4-((1-(5-Ethoxy-2-fluorophenyl)piperidin-4-yl)oxy)phenyl)-3-isopropyl-4-methoxypyrrolidin-2-yl)acetic acid, TFA] | 320 nM |

Reference: US9714231B2, “Pyrrolidine GPR40 modulators” (BRISTOL-MYERS SQUIBB COMPANY, priority 2012, dated 2017)
